These results are taken from ChEMBL document CHEMBL1124893, “1,2,4-Triazolo[4,3-a]pyrazine derivatives with human renin inhibitory activity. 2. Synthesis, biological properties and molecular modeling of hydroxyethylene isostere derivatives” (J Med Chem, 1990).

Structures are written as SMILES.

The target of this test is T1, Renin (Homo sapiens, UniProt P00797).
T1 sequence (P00797 whole entry): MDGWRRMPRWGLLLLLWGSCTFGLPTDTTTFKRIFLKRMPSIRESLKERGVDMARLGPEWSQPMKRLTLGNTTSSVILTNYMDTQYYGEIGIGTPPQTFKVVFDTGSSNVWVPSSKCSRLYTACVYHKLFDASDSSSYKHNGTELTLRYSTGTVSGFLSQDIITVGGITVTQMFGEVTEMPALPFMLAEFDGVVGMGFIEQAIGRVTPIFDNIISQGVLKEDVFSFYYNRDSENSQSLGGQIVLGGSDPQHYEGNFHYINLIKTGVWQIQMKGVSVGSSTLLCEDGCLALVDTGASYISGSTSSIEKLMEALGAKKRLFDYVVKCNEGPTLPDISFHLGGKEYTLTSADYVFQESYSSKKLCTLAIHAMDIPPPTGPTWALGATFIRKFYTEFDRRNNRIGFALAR
Briefly: Inhibition of human renin.

The compound `CCCc1nc(-c2cccnc2)cn2c(C(Cc3cccnc3)C(=O)NC(CC3CCCCC3)C(O)CC(C(=O)NCCCCO)C(C)C)nnc12` (centres undefined) had an IC50 of 0.3 nM. The compound `CCCCNC(=O)C(CC(O)C(CC1CCCCC1)NC(=O)Cc1nnc2c(CC(C)C)nc(-c3ccccc3)cn12)C(C)C` (centres undefined) returned an IC50 of 30 nM. The compound `CCCc1nc(-c2cccnc2)cn2c(C(Cc3cccnc3)C(=O)NC(CC3CCCCC3)C(O)CC(C(=O)N3CCOCC3)C(C)C)nnc12` (centres undefined) yielded an IC50 of 64 nM. `CCCCNC(=O)[C@@H](CC(O)C(CC1CCCCC1)NC(=O)Cc1nnc2c(CCC)nc(-c3cccnc3)cn12)C(C)C` (some centres undefined) registered an IC50 of 26 nM. Then `CCCCN(C)C(=O)C(CC(O)C(CC1CCCCC1)NC(=O)C(Cc1cccnc1)c1nnc2c(CCC)nc(-c3cccnc3)cn12)C(C)C` (centres undefined), with 41 nM. To `CCCc1nc(-c2cccnc2)cn2c(C(Cc3cccnc3)C(=O)NC(CC3CCCCC3)C(O)CC(C(=O)NCCN3CCNCC3)C(C)C)nnc12` (centres undefined) belongs 0.6 nM; to `CCCCNC(=O)C(CC(O)C(CC1CCCCC1)NC(=O)C(Cc1cccnc1)c1nnc2c(CCC)nc(-c3cccnc3)cn12)C(C)C` (centres undefined), 0.2 nM; to `CCCCNC(=O)C(CC(O)C(CC1CCCCC1)NC(=O)Cc1nnc2c(CCC)nc(-c3cccnc3)cn12)C(C)C` (centres undefined), 2.7 nM.

In the case of `CCCc1nc(-c2cccnc2)cn2c(C(Cc3cccnc3)C(=O)NC(CC3CCCCC3)C(O)CC(C(=O)NCCN3CCOCC3)C(C)C)nnc12` (centres undefined), the IC50 turned out to be 0.4 nM.

In turn, `CCCc1nc(-c2cccnc2)cn2c(C(Cc3cccnc3)C(=O)NC(CC3CCCCC3)C(O)CC(C(=O)NCCN)C(C)C)nnc12` (centres undefined) displayed a half-inhibitory concentration (IC50) of 78 nM. To `CCCc1nc(-c2cccnc2)cn2c(C(Cc3cccnc3)C(=O)NC(CC3CCCCC3)C(O)CC(C(=O)NCc3ccccn3)C(C)C)nnc12` (centres undefined) belongs 0.6 nM.

Regarding `CCCc1nc(-c2cccnc2)cn2c(C(Cc3cccnc3)C(=O)NC(CC3CCCCC3)C(O)CC(C(=O)N(C)CCN(C)C)C(C)C)nnc12` (centres undefined), the IC50 is 212 nM. Then `CCCc1nc(-c2cccnc2)cn2c(C(Cc3cccnc3)C(=O)NC(CC3CCCCC3)C(O)CC(C(=O)NCCN(C)C)C(C)C)nnc12` (single isomer, unassigned; less polar), with 8.6 nM.

In turn, `CCCc1nc(-c2cccnc2)cn2c(C(Cc3cccnc3)C(=O)NC(CC3CCCCC3)C(O)CC(C(=O)NCCN(C)C)C(C)C)nnc12` (stereo in doubt; e) returned a concentration for half-maximal inhibition (IC50) of 0.3 nM.
